Assay results from paper PMC11358092, “Caspofungin enhances the potency of rifampin against Gram-negative bacteria” (Frontiers in Microbiology, 2024).
Read-outs that look alike come from different tables or passages of the source. Numbered stars: 1 amine (or outer) side, 2 acyl side, 3 side chain; on linkers, the order of the positions; unused ones are H or OH. Bridge positions count the residues as written; N and C are the ends. Square brackets hold non-standard residues; d marks the D form. Peptide text beside a SMILES is read from it. * marks the point of attachment. pTerphenylCO(4''-OnC5H11) = CCCCCOc1ccc(-c2ccc(-c3ccc(C(=O)*)cc3)cc2)cc1; Orn(4R-OH,5R-OH) = O=C([C@H](C[C@@H](O)[C@@H](O)N[*:3])N[*:1])[*:2]; hTyr(3S-OH,4S-OH) = N[C@H](C(=O)O)[C@H](O)[C@@H](O)c1ccc(O)cc1; Pro(3S-OH,4S-Me) = C[C@H]1CN[C@H](C(=O)O)[C@H]1O; Hyp = O=C(O)[C@@H]1C[C@@H](O)CN1

Tests used:
E. coli MG1655 [1] = experiment: High-throughput screening of FDA-approved drug library for antibiotic adjuvants (growth inhibition, OD600); type: cell-based, Escherichia coli
E. coli MG1655 [2] = experiment: as above; type: cell-based, Escherichia coli; settings: library drug alone, LB medium, 96-well, 8 h static culture at 37°C, relative to PMBN (positive) and DMSO (negative) controls, %, table head prints no unit
K+ channel (KvQT1/minK) = settings: vendor library annotation (Targetmol); ref Kang J, et al. J Pharmacol Exp Ther. 2001 Oct;299(1):290-6; read-out: IC50, K+ channel (KvQT1/minK) antagonist; cited from earlier work
Text: Supplement Table_1.XLSX, sheet "Sheet1" | column: Bioactivity

E. coli MG1655 [3] = experiment: microbe, parasite or virus in culture; type: cell-based, Escherichia coli; settings: for FICI in combination with rifampin: 8 × 8 checkerboard, FICI ≤0.5 indicates synergy; for Synergistic activity with rifampin (in words): checkerboard assays, analogs of CAS
Procedure: (§1) Checkerboard assays were performed to evaluate the synergistic effect of CAS in combination with antibiotics as previously described ([Cai et al., 2023]). Briefly, antibiotics and CAS were diluted two times with MHB medium (with or without Mg^2+ or EDTA) in a 96-well plate, respectively, to form an 8 × 8 medium, and an equal volume (200 μL/well) of bacterial suspension with the drug was cultured. A microplate reader was used to measure the OD600 value after 18 h of culture at 37°C (the OD600 value over 0.1 indicates bacterial growth). The fractional inhibitory concentration index (FICI) was calculated using the following formula: FICI = MICab/MICa + MICba/MICb. MICa and MICb are the corresponding MIC values of compounds A and B alone, respectively; MICab is the MIC value of compound A combined with compound B; and MICba is the MIC value of compound B combined with compound A. Indicative of synergy is FICI ≤0.5.

E. coli 72 [4] = experiment: Galleria mellonella infection model; type: in vivo; settings: 2.25 × 10^5 CFU E. coli 72; CAS 64 mg/kg, rifampin 16 mg/kg, alone or in combination, injected via proleg; 10 larvae per group; survival over 48 h
P. aeruginosa PAO1 = experiment: Checkerboard assay; type: cell-based, Pseudomonas aeruginosa; settings: MHB, 18 h at 37°C, OD600
Procedure: as §1

E. coli 69 = experiment: Checkerboard assay; type: cell-based, Escherichia coli; settings: MHB, 18 h at 37°C, OD600
Procedure: as §1

E. coli 72 [5] = experiment: Checkerboard assay; type: cell-based, Escherichia coli; settings: multidrug-resistant strain, MHB, 18 h at 37°C, OD600
Procedure: as §1

E. coli ATCC25922 = experiment: Checkerboard assay; type: cell-based, Escherichia coli; settings: MHB, 18 h at 37°C, OD600
Procedure: as §1

[6] = system: Salmonella Typhimurium ATCC14028; experiment: Checkerboard assay; type: cell-based; settings: MHB, 18 h at 37°C, OD600
Procedure: as §1

E. coli 72 [7] = experiment: Time-kill curve; type: cell-based, Escherichia coli; settings: 1 × 10^6 CFU in MHB; CAS 32 μg/mL, rifampin 8 μg/mL, alone or combined; counted at 4, 8, 24 h
Procedure: (§2) At each time point (0, 4, 8, and 24 h), 100 μL of the bacterial solution was continuously diluted 10-fold in physiological saline. Subsequently, the suspension was then plated onto LB agar plates and cultured for an overnight period at 37°C for bacterial count.

E. coli MG1655 [8] = experiment: Time-kill curve; type: cell-based, Escherichia coli; settings: 1 × 10^6 CFU in MHB; CAS 16 μg/mL, rifampin 1 μg/mL, alone or combined; counted at 4, 8, 24 h
Procedure: as §2

[9] = library drug with 2 μg/mL rifampin, LB medium, 96-well, 8 h static culture at 37°C, OD600, relative to PMBN (positive) and DMSO (negative) controls, %, table head prints no unit

Molecule: CN1CCN(c2c(F)cc3c(=O)c(C(=O)O)cn4c3c2SCC4)CC1.Cl [Rufloxacin hydrochloride]
- Growth inhibition, Compound + rifampin (E. coli MG1655 [1]): 100%
- Growth inhibition, Compound (E. coli MG1655 [2]): 113%

Molecule: OC(c1cc(C(F)(F)F)nc2c(C(F)(F)F)cccc12)C1CCCCN1 (stereo not drawn) [Mefloquine]
- IC50 (K+ channel (KvQT1/minK)): ~1 µM

Molecule: Echinocandin B nucleus hydrochloride [ECBN HCl]
- FICI in combination with rifampin (E. coli MG1655 [3]; MHB, 18 h at 37°C): > 1
- Synergistic activity with rifampin (in words) (E. coli MG1655 [3]): weak synergistic activity

Molecule: Micafungin sodium
- FICI in combination with rifampin (E. coli MG1655 [3]; MHB, 18 h at 37°C): > 1
- Synergistic activity with rifampin (in words) (E. coli MG1655 [3]): weak synergistic activity

Molecule: CCCCCOc1ccc(-c2ccc(-c3ccc(C(=O)N[C@H]4C[C@@H](O)[C@@H](O)NC(=O)[C@@H]5[C@@H](O)[C@@H](C)CN5C(=O)[C@H]([C@@H](C)O)NC(=O)[C@H]([C@H](O)[C@@H](O)c5ccc(O)cc5)NC(=O)[C@@H]5C[C@@H](O)CN5C(=O)[C@H]([C@@H](C)O)NC4=O)cc3)cc2)cc1 [Anidulafungin] ({pTerphenylCO(4''-OnC5H11)}-[Orn(4R-OH,5R-OH)]T[Hyp][hTyr(3S-OH,4S-OH)]T[Pro(3S-OH,4S-Me)]; lactam 1-C; N-terminus assumed)
- FICI in combination with rifampin (E. coli MG1655 [3]; MHB, 18 h at 37°C): > 1
- Synergistic activity with rifampin (in words) (E. coli MG1655 [3]): weak synergistic activity

Molecule: C=C1c2c(Cl)ccc(O)c2C(=O)C2=C(O)[C@]3(O)C(=O)C(C(N)=O)=C(O)[C@@H](N(C)C)[C@@H]3[C@@H](O)[C@H]12.O=C(O)c1cc(S(=O)(=O)O)ccc1O [Meclocycline sulfosalicylate salt]
- Growth inhibition, Compound + rifampin (E. coli MG1655 [1]): 100%
- Growth inhibition, Compound (E. coli MG1655 [2]): 100%

Molecule: CO[C@@]1(NC(=O)CSC(F)F)C(=O)N2C(C(=O)[O-])=C(CSc3nnnn3CCO)CO[C@@H]21.[Na+] [Flomoxef sodium]
- Growth inhibition, Compound + rifampin (E. coli MG1655 [1]): 101%
- Growth inhibition, Compound (E. coli MG1655 [2]): 108%

Molecule: Cefetamet pivoxil hydrochloride
- Growth inhibition, Compound + rifampin (E. coli MG1655 [1]): 79%
- Growth inhibition, Compound (E. coli MG1655 [2]): 98%

Molecule: Pneumocandin B0
- FICI in combination with rifampin (E. coli MG1655 [3]; MHB, 18 h at 37°C): > 1
- Synergistic activity with rifampin (in words) (E. coli MG1655 [3]): weak synergistic activity

Molecule: Colistin Methanesulfonate (sodium salt)
- Growth inhibition, Compound + rifampin (E. coli MG1655 [1]; [9]): 102%
- Growth inhibition, Compound (E. coli MG1655 [2]): 87%

Molecule: CO[C@H]1/C=C/O[C@@]2(C)Oc3c(C)c(O)c4c(O)c(c(/C=N/N5CCN(C)CC5)c(O)c4c3C2=O)NC(=O)/C(C)=C\C=C\[C@H](C)[C@H](O)[C@@H](C)[C@@H](O)[C@@H](C)[C@H](OC(C)=O)[C@@H]1C [rifampin]
- Death/mortality rate of G. mellonella larvae challenged with E. coli 72 (E. coli 72 [4]): could not reduce the death rate
- MIC (P. aeruginosa PAO1; Pseudomonas aeruginosa, PAO1, rifampin alone): 16 µg/mL
- MIC of rifampin in combination with CAS (P. aeruginosa PAO1; rifampin with CAS): 0.5 µg/mL
- MIC (E. coli 69; Escherichia coli, 69, rifampin alone): 8 µg/mL
- MIC of rifampin in combination with CAS (E. coli 69; rifampin with CAS): 0.5 µg/mL
- MIC (E. coli 72 [5]; Escherichia coli, 72, rifampin alone): 64 µg/mL
- MIC of rifampin in combination with CAS (E. coli 72 [5]; rifampin with CAS): 0.5 µg/mL
- MIC (E. coli ATCC25922; Escherichia coli, ATCC25922, rifampin alone): 4 µg/mL
- MIC of rifampin in combination with CAS (E. coli ATCC25922; rifampin with CAS): 0.25 µg/mL
- MIC ([6]; Salmonella enterica, rifampin alone): 16 µg/mL
- MIC of rifampin in combination with CAS ([6]; rifampin with CAS): 0.5 µg/mL
- Time-kill, bacterial count (E. coli 72 [7]): no antimicrobial efficacy
- Time-kill, bacterial count (E. coli MG1655 [8]): no antimicrobial efficacy
- MIC (E. coli MG1655 [3]; Escherichia coli, MG1655, rifampin alone, MHB, 18 h at 37°C, OD600): 8 µg/mL
- MIC of rifampin in combination with CAS (E. coli MG1655 [3]; rifampin with CAS, MHB, 18 h at 37°C, OD600): 0.5 µg/mL
- Growth inhibition, Compound (E. coli MG1655 [2]): 101%

Molecule: CC(=O)OC[C@H]1O[C@@H]([S-])[C@H](OC(C)=O)[C@@H](OC(C)=O)[C@@H]1OC(C)=O.CCP(CC)CC.[Au+] [Auranofin]
- Growth inhibition, Compound + rifampin (E. coli MG1655 [1]): 60%
- Growth inhibition, Compound (E. coli MG1655 [2]): 64%

Molecule: O=C(Cn1cnnn1)N[C@@H]1C(=O)N2C(C(=O)[O-])=C(CSc3nncs3)CS[C@H]12.[Na+] [Ceftezole sodium]
- Growth inhibition, Compound + rifampin (E. coli MG1655 [1]): 102%
- Growth inhibition, Compound (E. coli MG1655 [2]): 109%

Molecule: Polymyxin B sulfate (1404-26-8 free base)
- Growth inhibition, Compound + rifampin (E. coli MG1655 [1]; [9]): 104%

Molecule: COS(=O)(=O)[O-].C[n+]1c2ccccc2nc2ccccc21 [Phenazine methosulfate]
- Growth inhibition, Compound + rifampin (E. coli MG1655 [1]; [9]): 76%
- Growth inhibition, Compound (E. coli MG1655 [2]): 80%

Molecule: Streptozocin
- Growth inhibition, Compound + rifampin (E. coli MG1655 [1]): 69%
- Growth inhibition, Compound (E. coli MG1655 [2]): 62%

Molecule: Colistin sulfate (1066-17-7 free base)
- Growth inhibition, Compound + rifampin (E. coli MG1655 [1]; [9]): 113%
- Growth inhibition, Compound (E. coli MG1655 [2]): 104%

Molecule: Colistimethate Sodium
- Growth inhibition, Compound + rifampin (E. coli MG1655 [1]; [9]): 95%
- Growth inhibition, Compound (E. coli MG1655 [2]): 94%
